Entries after “also recorded” stand apart in the source; their conditions may differ. Read-outs that look alike come from different tables or passages of the source.
Key:
PNC in HeLa cancer cells = assay: PNC inhibition: IC50 inhibiting PNC in cancer cells (HeLa); format: cell-based; settings: for IC50: Homo sapiens, HeLa cancer cells, inhibiting PNC; for fold more potent than metarrestin: PNC inhibition, versus metarrestin; for IC50 nucleoli.normal/IC50 PNC.cancer: ratio RPE1 nucleoli IC50 to HeLa PNC IC50
Procedure: PNC inhibitory activity was determined using fluorescent imaging techniques known in the art, such as: a CellTiter-Glo® luminescence assay from Promega to determine cell viability and/or fluorescent imaging studies with an IN Cell Analyzer 1000 automated system in combination with a green fluorescent protein (GFP) tagged PNC localized complex.

[1] = test system: nucleoli in RPE1 normal cells; assay: IC50 disrupting nucleoli in normal cells (RPE1); format: cell-based; settings: Homo sapiens, RPE-1
eEF1A2 [2] = molecular target: T1, eEF1A2 (Homo sapiens, UniProt Q05639); assay: Western blot analysis of eEF1A2 protein levels; format: cell-based; parameters: dose or concentration left out as unconfirmed; settings: actin loading control, vehicle as standard of one; preliminary
T1 construct: Compound 49 treatment for 20 hours reduced eEF1A2 by Western blot analysis; endogenous in cells
T1 sequence (Q05639 1-463): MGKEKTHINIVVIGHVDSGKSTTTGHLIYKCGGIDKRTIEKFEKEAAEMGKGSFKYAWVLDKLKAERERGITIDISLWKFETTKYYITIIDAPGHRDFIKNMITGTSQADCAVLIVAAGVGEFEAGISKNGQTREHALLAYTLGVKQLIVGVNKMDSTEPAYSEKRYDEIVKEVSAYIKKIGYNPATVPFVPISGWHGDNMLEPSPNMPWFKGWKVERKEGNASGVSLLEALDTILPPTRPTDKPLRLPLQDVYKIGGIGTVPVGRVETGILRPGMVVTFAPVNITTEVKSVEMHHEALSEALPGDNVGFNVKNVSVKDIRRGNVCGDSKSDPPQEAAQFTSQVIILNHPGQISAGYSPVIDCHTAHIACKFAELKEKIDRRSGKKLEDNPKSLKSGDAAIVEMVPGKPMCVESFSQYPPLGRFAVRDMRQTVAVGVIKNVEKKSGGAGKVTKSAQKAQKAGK
Source text: FIGS. 6A and 6B show results from metarrestin-PROTAC studies.

[3] = test system: PNC prevalence in HeLA cells; assay: Percentage of HeLa cells with PNCs after treatment (FIG. 7); format: cell-based
Source text: PNC prevalence is correlated with metastatic potential and can be disrupted through modulation of the elongation factor eEF1A.

PANC1 [4] = assay: Orthotopic mouse model with 3-D cultured PANC1 cells (metastasis); format: in vivo
Procedure: (§1) FIGS. 2A-2F show metarrestin and various studies.
(§2) Using a high-content screen to measure reduction of PNC prevalence, noncytotoxic PNC inhibitor hit compounds were discovered such as metarrestin, (FIG. 2A). […] Metarrestin was further evaluated in xenograft models of PC3M (metastatic prostate cancer cell line) and in a breast cancer patient-derived xenograft (PDX, harvested from a lung metastasis site). […] When the survival of the PANC1 tumor-bearing animals was evaluated, two sets of experiments were performed to determine efficacy at two treatment starting points, either after (eight weeks post-inoculation) or prior to (four weeks post-inoculation) macrometastasis had been established.

PANC1 [5] = assay: Survival of PANC1 tumor-bearing animals; format: in vivo, mouse; settings: for animal survival, treatment started post-macrometastasis formation / animal survival, treatment started prior to macrometastasis formation: food pellets, 10 mg/kg daily; for animal survival, treatment started post-macrometastasis formation: start eight weeks post-inoculation, FIG. 2F; for animal survival, treatment started prior to macrometastasis formation: start four weeks post-inoculation, FIG. 2E; for organ tumor replacement at autopsy (liver, lung, pancreas): treatment after macrometastasis, versus regular food pellets, FIG. 2G
Procedure: as §1, §2

[6] = Large mammal dose-escalation studies; format: in vivo; settings: overloading dosing
Source text: Thus, the potential for dose-limiting neurological side effects could constrain the patient population to drug-resistant or late-stage individuals. However, cancer patient outcomes would generally greatly benefit from adjuvant or co-administration use of an anti-metastasis agent such as metarrestin at any stage of cancer. Therefore, in order to improve the cancer cell selectivity and reduce potential toxicity to normal cells, development of next generation metarrestin derivatives that selectively enhance drug efficacy against cancer cells over normal cells were needed.

eEF1A2 [7] = molecular target: T1, eEF1A2; assay: Competition with anchored biotinylated metarrestin-eEF1A2 complex; format: binding; settings: FIG. 3A
Source text: (§3) FIGS. 3A-3E show metarrestin binding and cellular data. FIG. 3A presents data showing that metarrestin specifically binds eEF1A2, and increased eEF1A2 enhances PNCs and metastasis formation. […] Mice from both groups were harvested six weeks after implantation and subjected to necropsy. […] Histopathological images (H&E) of livers (black scale bar=250 μm, white scale bar=100 μm) are shown on the right. Insets depict representative metastatic lesions.
(§4) With respect to the metarrestin target eEF1A2, the biased expression of eEF1A2 in cancer cells over normal adult cells (except neuronal cells) was used to selectively target cancer cells. […] Increased eEF1A2 enhances PNC number per cell (FIG. 3C) and metastasis formation (FIG. 3E). […] Expression of eEF1A2 is associated with cancer metastasis and correlates with poor patient outcomes.

eEF1A2 [8] = molecular target: T1, eEF1A2; assay: Thermal stability assay using PC3M cell lysate; format: binding; settings: FIG. 3B
Source text: as §3, §4

PNC in PC3M cells = assay: PNC disassembly in PC3M cells with eEF1A2 overexpression; format: cell-based; settings: FIG. 3D
Source text: as §3, §4

eEF1A2 [9] = molecular target: T1, eEF1A2; settings: similar treatment conditions, reference [5]; cited from earlier work
[10] = test system: PC3M (metastatic prostate cancer cell line); settings: PC3M xenograft, reference [5]; cited from earlier work
[11] = test system: breast cancer patient-derived xenograft; settings: PDX harvested from a lung metastasis site, reference [5]; cited from earlier work
[12] = reference [29], cited from earlier work
[13] = daily treatment for up to three months, animals, reference [5]; cited from earlier work
migration and invasion = settings: reference [5]; cited from earlier work

## N=c1c2c(-c3ccccc3)c(-c3ccccc3)n(Cc3cccc(CNC(=O)CCCCCNc4cccc5c4C(=O)N(C4CCC(=O)NC4=O)C5=O)c3)c2ncn1C1CCC(O)CC1 (stereo not shown) [Compound 46]
PNC in HeLa cancer cells
  IC50: 0.11 µM
  fold more potent than metarrestin: threefold
  IC50 nucleoli.normal/IC50 PNC.cancer: 4.27
[1]
  IC50: 0.47 µM

## O=C1CCC(N2C(=O)c3cccc(NCCCCCNC(=O)c4ccc(Cn5c(-c6ccccc6)c(-c6ccccc6)c6c(NC7CCC(O)CC7)ncnc65)cc4)c3C2=O)C(=O)N1 (stereo not shown) [Compound 49]
PNC in HeLa cancer cells
  IC50: 0.025 µM
  fold more potent than metarrestin: 14 fold
  IC50 nucleoli.normal/IC50 PNC.cancer: 4
[1]
  IC50: 0.1 µM
eEF1A2 [2]
  eEF1A2 protein levels by Western blot: significantly reduced; also recorded: significant reduction

## N=c1c2c(-c3ccccc3)c(-c3ccccc3)n(Cc3ccccc3)c2ncn1[C@H]1CC[C@H](OC(=O)CCCNc2cccc3c2C(=O)N(C2CCC(=O)NC2=O)C3=O)CC1 (stereo partly shown) [Compound 56]
[3]
  PNC prevalence (percentage of cells with PNCs): almost complete disruption of PNC prevalence
[3]; 0.1 μM
  PNC prevalence (percentage of cells with PNCs): measureable reduction in PNC prevalence

## N=c1c2c(-c3ccccc3)c(-c3ccccc3)n(Cc3ccccc3)c2ncn1[C@H]1CC[C@H](OC(=O)CCOCCOCCOCCNc2cccc3c2C(=O)N(C2CCC(=O)NC2=O)C3=O)CC1 (stereo partly shown) [Compound 57]
[3]
  PNC prevalence (percentage of cells with PNCs): almost complete disruption of PNC prevalence
[3]; 0.1 μM
  PNC prevalence (percentage of cells with PNCs): measureable reduction in PNC prevalence

## N=c1c2c(-c3ccccc3)c(-c3ccccc3)n(Cc3ccccc3)c2ncn1[C@H]1CC[C@H](O)CC1 [Metarrestin]
PNC in HeLa cancer cells
  IC50: 0.36 µM
  IC50 nucleoli.normal/IC50 PNC.cancer: 6.25
[1]
  IC50: 2.5 µM
PANC1 [4]; 5 mg/kg and 25 mg/kg, FIG. 2B
  metastasis as organ/tumor ratio in liver and lung: inhibits metastasis
PANC1 [4]; 25 mg/kg IP daily for four weeks
  metastatic burden in lung and liver: significantly reduced the metastatic burden
PANC1 [4]; 25 mg/kg IP daily for four weeks, data not shown
  primary tumor growth: only modest reduction
PANC1 [4]; 25 mg/kg, FIG. 2C
  metastasis as metastatic deposits in liver and lung: inhibits metastasis
PANC1 [5]; 10 mg/kg
  animal survival, treatment started post-macrometastasis formation: significantly improved animal survival
  animal survival, treatment started prior to macrometastasis formation: completely prevented metastasis-induced death
PANC1 [5]; listed as metarrestin, 10 mg/kg
  animal survival, treatment started post-macrometastasis formation: effective at extending survival
PANC1 [5]
  animal survival, treatment started prior to macrometastasis formation: drastic animal survival advantages
  organ tumor replacement at autopsy (liver, lung, pancreas): did not show significant tumor replacement
PANC1 [5]; listed as metarrestin
  organ tumor replacement at autopsy (liver, lung, pancreas): less tumors were present
[6]
  seizures: reversible seizures
eEF1A2 [7]
  competition of recombinant eEF1A2 binding to anchored biotinylated metarrestin: effectively outcompeted
eEF1A2 [8]
  thermal stabilization of eEF1A2: stabilized eEF1A; also recorded: stabilized eEF1A2
PNC in PC3M cells
  change of IC50 for PNC disassembly on eEF1A2 overexpression: increased the IC50
eEF1A2 [9]
  eEF1A2 protein levels: does not reduce the protein levels
[10]
  organ metastasis: significant inhibition of organ metastasis
[11]
  metastatic tumor growth: metastatic tumor growth inhibition
[12]; allows once-a-day dosing
  half-life: long
[12]
  tissue distribution: good
[13]
  adverse effects: does not induce discernable adverse effects
Migration and invasion
  in vitro anti-oncogenic properties: migration and invasion inhibition

From US20260028342A1, “ENHANCING ANTIMETASTASIS ACTIVITY USING TARGETED PROTEIN DEGRADATION” (THE UNIVERSITY OF NORTH CAROLINA AT CHAPEL HILL, priority 2022, published 2026)
